Assay [1] relates to BMAA_165_min (FAM-labeled) (DNA, aptamer) GGGCGTGTGTGGGAGGGGGCACTTCGTCGGGGTGAGCCAG
Briefly: BMAA-conjugated plate fluorescence assay. The note with it: 100 mM NaCl, 5 mM MgCl2, 20 mM Tris pH 7.6, room temperature, immobilised compound on streptavidin plate.

Assay [2] has as its system BMAA_159_min (FAM-labeled) (DNA, aptamer) GGCTCGGCCCTGGGTGAGGGGCGCAGTGGGGTGTAGCCAG
Kind of assay: BMAA-conjugated plate fluorescence assay. The note with it: 100 mM NaCl, 5 mM MgCl2, 20 mM Tris pH 7.6, room temperature, immobilised compound on streptavidin plate.

Assay [3] has as its system BMAA_159_min (DNA, aptamer) GGCTCGGCCCTGGGTGAGGGGCGCAGTGGGGTGTAGCCAG
Kind of assay: 1H NMR titration. Particulars: 100 mM NaCl, 2 mM MgCl2; 20 mM sodium phosphate, 10% D2O, 298 K; qualitative.

The subject of assay [4] is BMAA_165_min (DNA, aptamer) GGGCGTGTGTGGGAGGGGGCACTTCGTCGGGGTGAGCCAG
Kind of assay: 1H NMR titration. Particulars: 100 mM NaCl, 2 mM MgCl2; 20 mM sodium phosphate, 10% D2O, 298 K; qualitative.

The test system of assay [5] is BMAA_165 (DNA, aptamer) TGTACCGTCTGAGCGATTCGTACGGGCGTGTGTGGGAGGGGGCACTTCGTCGGGGTGAGCCAGTCAGTGTTAAGGAGTGC
Briefly: SYBR Green I fluorescence displacement. Particulars: 100 mM NaCl, 5 mM MgCl2; 20 mM Tris pH 7.6, room temperature; SYBR Green I displaced; one-site fit.

Assay [6] deals with BMAA_38 (DNA, aptamer) TGTACCGTCTGAGCGATTCGTACGGGGGTTCACGCTCGAGGGGGCCACAGGGGGAGTAGCCAGTCAGTGTTAAGGAGTGC
Kind of assay: SYBR Green I fluorescence displacement. The note with it: 100 mM NaCl, 5 mM MgCl2, 20 mM Tris pH 7.6, room temperature, four of five candidates bind, not named.

Assay [7] relates to BMAA_172 (DNA, aptamer) TGTACCGTCTGAGCGATTCGTACGGGGGCCAGTGAATGAGTTGGGGTGGTAATGGGGAGCCAGTCAGTGTTAAGGAGTGC
Briefly: SYBR Green I fluorescence displacement. The note with it: 100 mM NaCl, 5 mM MgCl2, 20 mM Tris pH 7.6, room temperature, four of five candidates bind, not named.

The test system of assay [8] is BMAA_165_scrambled (DNA, aptamer) TGTACCGTCTGAGCGATTCGTACAGTCGTTGGGGGGGGGGGTGAGCGTTGCGCGCGTAGCCAGTCAGTGTTAAGGAGTGC
Kind of assay: SYBR Green I fluorescence displacement. The note with it: 100 mM NaCl, 5 mM MgCl2; 20 mM Tris pH 7.6, room temperature; SYBR Green I displaced; up to 25 μM BMAA.

The subject of assay [9] is BMAA_159 (DNA, aptamer) TGTACCGTCTGAGCGATTCGTACGGCTCGGCCCTGGGTGAGGGGCGCAGTGGGGTGTAGCCAGTCAGTGTTAAGGAGTGC
Briefly: SYBR Green I fluorescence displacement. The note with it: 100 mM NaCl, 5 mM MgCl2; 20 mM Tris pH 7.6, room temperature; SYBR Green I displaced; one-site fit.

Assay [10] relates to BMAA_159_min (DNA, aptamer) GGCTCGGCCCTGGGTGAGGGGCGCAGTGGGGTGTAGCCAG
Kind of assay: circular dichroism. The note with it: 100 mM NaCl (100 mM KCl in legend), 5 mM MgCl2; 20 mM Tris pH 7.6, room temperature; qualitative. On the technique in general: Circular dichroism is the unequal absorption of left and right circularly polarised light.

Assay [11] concerns BMAA_165_min (biosensing) (DNA, aptamer) GGGCGTGTGTGGGAGGGGGCACTTCGTCGGGGTG
Briefly: electrochemical aptamer sensor (SWV, EIS). Particulars: 4 mM NaCl, 0.2 mM MgCl2.

Consider `CNCC(NC(=O)CCOCCOCCOCCOCCNC(=O)CCCC[C@@H]1SC[C@@H]2NC(=O)N[C@@H]21)C(=O)O` (some centres unmarked), for which the “apparent Kd” value was found to be 630 ± 20 nM in [1] and 6000 ± 1000 nM in assay [2].

As to `CNC[C@H](N)C(=O)O`, the binding result in assay [3] was “yes”; in assay [4] it was “yes”; in assay [8], “no”; in [10] it was “yes”; in assay [11], “yes”. In addition, the Kd (usually a measure of binding affinity in units of concentration) stood at 320 ± 20 nM in [5] and 2200 ± 100 nM in [9]. Moreover, the “apparent Kd” value in assay [6] is 18.6 (3.08-102) uM; in [7], 6.50 (5.23-9.56) uM.

Source of the values: article PMC11046380 (2024).
